Source: patent US20240294531A1, “COVALENT HETEROCYCLES AND USES THEREOF” (Kumquat Biosciences Inc., priority 2022, published 2024)

How the values were obtained:
BTK wildtype protein = BTK wildtype protein (Homo sapiens (Human), UniProt Q06187); experiment: BTK wildtype HTRF displacement assay; assay type: binding; conditions: 1-hour incubation; read-out: BTK (wt) IC50
How it was run: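 Tracer-displacement HTRF format: compound and tracer 239 compete at the BTK active site, detected via anti-GST-Tb on GST-tagged full-length enzyme. One-hour room-temperature incubation; compounds dosed at six four-fold steps down from 5 μM. Percent inhibition versus DMSO gives IC50 by constrained four-parameter logistic fit.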

BTK C481S protein = BTK C481S protein (Homo sapiens (Human), UniProt Q06187, C481S); experiment: BTK C481S HTRF displacement assay; assay type: binding; conditions: 1-hour incubation
How it was run: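 Tracer displacement read by HTRF after 1 hour at room temperature: GST-BTK C481S 2-659, 50 nM tracer 239 (Kd 54 nM), anti-GST antibody, compound in six four-fold doses from 5 μM. Percent inhibition versus DMSO fitted (bottom 0, top 100) for IC50, converted to KI via Cheng-Prusoff.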

Sequence of BTK C481S protein (Q06187 2-659 C481S): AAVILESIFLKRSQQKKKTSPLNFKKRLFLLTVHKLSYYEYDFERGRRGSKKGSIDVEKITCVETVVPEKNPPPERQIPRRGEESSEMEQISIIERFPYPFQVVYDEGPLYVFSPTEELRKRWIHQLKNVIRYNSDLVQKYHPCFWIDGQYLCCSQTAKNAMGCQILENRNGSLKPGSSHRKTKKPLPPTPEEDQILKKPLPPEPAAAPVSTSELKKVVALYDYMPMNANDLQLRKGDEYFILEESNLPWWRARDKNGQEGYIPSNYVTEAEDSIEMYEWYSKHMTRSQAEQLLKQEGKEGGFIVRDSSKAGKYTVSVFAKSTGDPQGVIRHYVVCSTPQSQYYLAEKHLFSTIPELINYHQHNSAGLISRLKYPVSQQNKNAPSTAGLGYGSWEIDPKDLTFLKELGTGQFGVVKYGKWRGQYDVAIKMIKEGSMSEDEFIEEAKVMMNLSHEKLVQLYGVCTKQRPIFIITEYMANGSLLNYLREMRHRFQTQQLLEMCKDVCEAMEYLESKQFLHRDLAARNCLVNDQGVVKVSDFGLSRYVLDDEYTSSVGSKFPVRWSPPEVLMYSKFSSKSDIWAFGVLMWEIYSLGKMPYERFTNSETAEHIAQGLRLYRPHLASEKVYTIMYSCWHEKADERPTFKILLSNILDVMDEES
Sequence of BTK wildtype protein (Q06187 2-659): as the sequence (Q06187 2-659 C481S) above, with S480C counted along it

Compound	IC50 (BTK wildtype protein) [nM]	IC50 (BTK C481S protein) [nM]
COc1ccc(F)cc1C(=O)NCc1ccc(-c2nn(C[C@H]3CCCC[C@H]3CN(C)C(=O)n3cncn3)c3ncnc(N)c23)cc1 [Compound 173, N-(((1R,2S)-2-((4-amino-3-(4-((5-fluoro-2-methoxybenzamido)methyl)phenyl)-1H-pyrazolo[3,4-d]pyrimidin-1-yl)methyl)cyclohexyl)methyl)-N-methyl-1H-1,2,4-triazole-1-carboxamide]	≤ 1000	≤ 1000
COc1ccc(F)cc1C(=O)NCc1ccc(-c2nn(CCCN(C(=O)n3cncn3)C3CC3)c3ncnc(N)c23)cc1 [Compound 287, N-(3-(4-amino-3-(4-((5-fluoro-2-methoxybenzamido)methyl)phenyl)-1H-pyrazolo[3,4-d]pyrimidin-1-yl)propyl)-N-cyclopropyl-1H-1,2,4-triazole-1-carboxamide]	≤ 1000	≤ 1000
CC(C1CCNc2c(C(N)=O)c(-c3ccc(Oc4ccccc4)cc3)nn21)N(C)C(=O)n1cncn1 (stereo not drawn) [Compound 205, 7-(1-(N-methyl-1H-1,2,4-triazole-1-carboxamido)ethyl)-2-(4-phenoxy-phenyl)-4,5,6,7-tetrahydro-pyrazolo[1,5-a]pyrimidine-3-carboxamide]	≤ 1000	≤ 1000
COc1ccc(F)cc1C(=O)NCc1ccc(-c2nn(C3CCC(CN(C)C(=O)n4cncn4)C3)c3ncnc(N)c23)cc1 (stereo not drawn) [Compound 111, N-((3-(4-amino-3-(4-((5-fluoro-2-methoxybenzamido)methyl)phenyl)-1H-pyrazolo[3,4-d]pyrimidin-1-yl)cyclopentyl)methyl)-N-methyl-1H-1,2,4-triazole-1-carboxamide]	≤ 1000	≤ 1000
COc1ccc(C)cc1C(=O)NCc1ccc(-c2nn(C3CCC(N(C)C(=O)n4cnnn4)C3)c3ncnc(N)c23)cc1 (stereo not drawn) [Compound 273, N-(3-(4-amino-3-(4-((2-methoxy-5-methylbenzamido)methyl)phenyl)-1H-pyrazolo[3,4-d]pyrimidin-1-yl)cyclopentyl)-N-methyl-1H-tetrazole-1-carboxamide]	≤ 1000	≤ 1000
Cc1[nH]c2c(C(N)=O)cc(F)c(N3CCC4(CCN4C(=O)n4cncn4)C3)c2c1C (stereo not drawn) [Compound 105, 4-(1-(1H-1,2,4-triazole-1-carbonyl)-1,6-diazaspiro[3.4]octan-6-yl)-5-fluoro-2,3-dimethyl-1H-indole-7-carboxamide]	≤ 1000	≤ 1000
COc1ccc(F)cc1C(=O)NCc1ccc(-c2nn(C(CN(C)C(=O)n3cncn3)c3ccccc3)c3ncnc(N)c23)cc1 (stereo not drawn) [Compound 243, N-(2-(4-amino-3-(4-((5-fluoro-2-methoxybenzamido)methyl)phenyl)-1H-pyrazolo[3,4-d]pyrimidin-1-yl)-2-phenylethyl)-N-methl-1H-1,2,4-triazole-1-carboxamide]	> 1000	> 1000
Cc1[nH]c2c(C(N)=O)cc(F)c(N3CCCC4(CCN4C(=O)n4cncn4)C3)c2c1C (stereo not drawn) [Compound 171, 4-(1-(1H-1,2,4-triazole-1-carbonyl)-1,6-diazaspiro[3.5]nonan-6-yl)-5-fluoro-2,3-dimethyl-1H-indole-7-carboxamide]	≤ 1000	≤ 1000
COc1ccc(F)cc1C(=O)NCc1ccc(-c2nn(CC3CCC3N(C)C(=O)n3cncn3)c3ncnc(N)c23)cc1 (stereo not drawn) [Compound 209, N-(2-((4-amino-3-(4-((5-fluoro-2-methoxybenzamido)methyl)phenyl)-1H-pyrazolo[3,4-d]pyrimidin-1-yl)methyl)cyclobutyl)-N-methyl-1H-1,2,4-triazole-1-carboxamide]	≤ 1000	≤ 1000
COCCC(Cn1nc(-c2ccc(CNC(=O)c3cc(F)ccc3OC)cc2)c2c(N)ncnc21)N(C)C(=O)n1cncn1 (stereo not drawn) [Compound 214, N-(1-(4-amino-3-(4-((5-fluoro-2-methoxybenzamido)methyl)phenyl)-1H-pyrazolo[3,4-d]pyrimidin-1-yl)-4-methoxy-butan-2-yl)-N-methyl-1H-1,2,4-triazole-1-carboxamide]	> 1000	> 1000
COc1ccc(F)cc1C(=O)NCc1ccc(-c2nn(C[C@H]3CCCCN3C(=O)n3cncn3)c3[nH]c(=O)[nH]c(=O)c23)cc1 [Compound 185, (R)-N-(4-(1-((1-(1H-1,2,4-triazole-1-carbonyl)piperidin-2-yl)methyl)-4,6-dioxo-4,5,6,7-tetrahydro-1H-pyrazolo[3,4-d]pyrimidin-3-yl)benzyl)-5-fluoro-2-methoxybenzamide]	> 1000	≤ 1000
COc1ccc(F)cc1C(=O)NCc1ccc(-c2nn(-c3cccc(N(C)C(=O)n4cncn4)c3)c3ncnc(N)c23)cc1 [Compound 187, N-(3-(4-amino-3-(4-((5-fluoro-2-methoxybenzamido)methyl)phenyl)-1H-pyrazolo[3,4-d]pyrimidin-1-yl)phenyl)-N-methyl-1H-1,2,4-triazole-1-carboxamide]	≤ 1000	≤ 1000

Other lines, results leading:

IC50 (BTK wildtype protein) [nM]	IC50 (BTK C481S protein) [nM]	Compound
≤ 1000	≤ 1000	CC1CC(n2nc(-c3ccc(Oc4ccccc4)cc3)c3c(N)ncnc32)CCN1C(=O)n1cncn1 (stereo not drawn) [Compound 144, (4-(4-amino-3-(4-phenoxyphenyl)-1H-pyrazolo[3,4-d]pyrimidin-1-yl)-2-methylpiperidin-1-yl)(1H-1,2,4-triazol-1-yl)methanone]
≤ 1000	≤ 1000	NC(=O)c1c(-c2ccc(Oc3ccccc3)cc2)nn2c1NCC1CCN(C(=O)n3cncn3)CC12 (stereo not drawn) [Compound 288, 2-(4-phenoxyphenyl)-8-(1H-1,2,4-triazole-1-carbonyl)-4,5,5a,6,7,8,9,9a-octahydropyrazolo[1,5-a]pyrido [4,3-e]pyrimidine-3-carboxamide]
> 1000	> 1000	COc1ccc(F)cc1C(=O)NCc1ccc(-c2nn(CC3CCCCCN3C(=O)n3cncn3)c3ncnc(N)c23)cc1 (stereo not drawn) [Compound 174, N-(4-(1-((1-(1H-1,2,4-triazole-1-carbonyl)azepan-2-yl)methyl)-4-amino-1H-pyrazolo[3,4-d]pyrimidin-3-yl)benzyl)-5-fluoro-2-methoxybenzamide]
> 1000	> 1000	COc1ccc(F)cc1C(=O)NCc1ccc(-c2nn(C[C@@H]3C[C@@H](O)CN3C(=O)n3cncn3)c3ncnc(N)c23)cc1 [Compound 224, N-(4-(4-amino-1-(((2S,4R)-4-hydroxy-1-(1H-1,2,4-triazole-1-carbonyl)pyrrolidin-2-yl)methyl)-1H-pyrazolo[3,4-d]pyrimidin-3-yl)benzyl)-5-fluoro-2-methoxybenzamide]
≤ 1000	≤ 1000	Nc1ncnc2c1c(-c1ccc(Oc3ccccc3)cc1)nn2CC1CCCCN1C(=O)n1cncn1 (stereo not drawn) [Compound 267, (2-((4-amino-3-(4-phenoxyphenyl)-1H-pyrazolo[3,4-d]pyrimidin-1-yl)methyl)piperidin-1-yl)(1H-1,2,4-triazol-1-yl)methanone]
≤ 1000	≤ 1000	NC(=O)c1c(-c2ccc(Oc3ccccc3)cc2)nn(C2CCCCN(C(=O)n3cncn3)C2)c1N (stereo not drawn) [Compound 159, 1-(1-(1H-1,2,4-triazole-1-carbonyl)azepan-3-yl)-5-amino-3-(4-phenoxyphenyl)-1H-pyrazole-4-carboxamide]
> 1000	> 1000	COc1ccc(F)cc1C(=O)NCc1ccc(-c2nn(CC3CC(C)CCN3C(=O)n3cncn3)c3ncnc(N)c23)cc1 (stereo not drawn) [Compound 112, N-(4-(4-amino-1-((4-methyl-1-(1H-1,2,4-triazole-1-carbonyl)piperidin-2-yl)methyl)-1H-pyrazolo[3,4-d]pyrimidin-3-yl)benzyl)-5-fluoro-2-methoxybenzamide]
≤ 1000	≤ 1000	NC(=O)c1c(-c2ccc(Oc3ccccc3)cc2)nn2c1NCCC2C1CN(C(=O)n2cncn2)C1 (stereo not drawn) [Compound 220, 7-(1-(1H-1,2,4-triazole-1-carbonyl)azetidin-3-yl)-2-(4-phenoxyphenyl)-4,5,6,7-tetrahydropyrazolo[1,5-a] pyrimidine-3-carboxamide]
≤ 1000	≤ 1000	COc1ccc(F)cc1C(=O)NCc1ccc(-c2nn(C[C@@H]3C[C@H](F)CN3C(=O)n3cncn3)c3ncnc(N)c23)cc1 [Compound 208, N-(4-(4-amino-1-(((2S,4S)-4-fluoro-1-(1H-1,2,4-triazole-1-carbonyl)pyrrolidin-2-yl)methyl)-1H-pyrazolo[3,4-d]pyrimidin-3-yl)benzyl)-5-fluoro-2-methoxybenzamide]
≤ 1000	≤ 1000	NC(=O)c1c(-c2ccc(Oc3ccccc3)cc2)nn2c1NCCC2C1CCN(C(=O)n2cncn2)C1 (stereo not drawn) [Compound 282, 7-(1-(1H-1,2,4-triazole-1-carbonyl)pyrrolidin-3-yl)-2-(4-phenoxyphenyl)-4,5,6,7-tetrahydropyrazolo[1,5-a] pyrimidine-3-carboxamide]
≤ 1000	≤ 1000	NC(=O)c1c(-c2ccc(Oc3ccccc3)cc2)nn(C2CCCN(C(=O)n3cncn3)C2)c1N (stereo not drawn) [Compound 163, 1-(1-(1H-1,2,4-triazole-1-carbonyl)piperidin-3-yl)-5-amino-3-(4-phenoxyphenyl)-1H-pyrazole-4-carboxamide]
≤ 1000	> 1000	COc1ccc(C)cc1C(=O)NCc1ccc(-c2nn(CC3CCCCN3C(=O)n3cncn3)c3ncnc(N)c23)cc1 (stereo not drawn) [Compound 217, N-(4-(1-((1-(1H-1,2,4-triazole-1-carbonyl)piperidin-2-yl)methyl)-4-amino-1H-pyrazolo[3,4-d]pyrimidin-3-yl)benzyl)-2-methoxy-5-methylbenzamide]
